What was measured:
healthy human skin [1] = assay: Skin roughness by profilometry (mean depth of roughness Rz) on volar forearms, 7 days of treatment then SDS irritation; type: in vivo; parameters: unit not given here
Protocol: Roughness was measured by profilometry using a stylus instrument (OFR 01; Romano GmbH, Cologne, Germany). Silicon impressions from the test areas of the volar forearm were prepared. The dental mass Silasoft N® (Detax-K. Huber K.G., Karlsruhe, Germany) was used for making the impressions. The parameter mean depth of roughness Rz (DIN 4768/1) was measured. By convention the scan length was divided into […] equal-sized areas. In each area the distance from the highest peak to the lowest trough was established. The average of these five distances is Rz.
(§1) Two panels of each five female volunteers at the age of 19-55 years with healthy skin were included in the test.
(§2) Measurements were carried out at a temperature of 22±1°C and a relative humidity of 60±10%. Subjects were accustomed to ambient conditions for 20 min prior to any measurement. The test was carried out on the volar forearms. Initially untreated skin was measured in all six areas to find baseline values. Then the five test products were applied, one area remained untreated. The dose of applicaton was about 2 mg/cm^2. In the following 7 days a home application in the morning and evening took place. Measurements were evaluated during the treatment period on day 7 two hours after the last daily application. Then the test areas on both forearms were treated with a 5% aqueous solution of sodium lauryl sulphate (SDS) and an occlusive dressing applied to induce skin irritation. The dressing was removed two hours later, and the regions were gently washed with water and air-dried. After one hour the measurements were done when the level had stabilised.
(§3) Use of other cosmetic products was restricted on the test areas throughout the whole study.
(§4) • before start treatment; • two hours after last application on day 7; • 1 hour after irritation with SDS (2 hours under occlusion).

[2] = tested on: barrier function of the skin; assay: Skin colour by chromametry (Minolta Chromameter CR 300) on volar forearms, 7 days of treatment then SDS irritation; type: in vivo, human; parameters: key: CIE a* value (green-red axis); higher = redder skin
Protocol: Skin colour was measured by chromametry with a Minolta Chromameter CR 300 (Minolta, Ahrensburg, Germany) in compliance with the Commission International de l'eclairage (CIE) system, according to which the registration of colour is adjusted to the non-linear colour sensitivity of human eye. A colour is expressed in a three-dimensional coordinate system with green-red (a*), yellow-blue (b*) and L* axes (brightness). The skin surface is illuminated by a Xenon flash light and remitted light registered and analysed by a photoreceiver. Chromametry is sensitive and accurate for the characterization of redness of skin irritation. In inflamed skin a positive change on the a* axis is observed, towards red. Each value was the average of three recordings.
as §1, §2, §3, §4

[3] = tested on: barrier function of the skin; assay: Trans-epidermal water loss (TEWL, Tewameter) on volar forearms, 7 days of treatment then SDS irritation; type: in vivo, human; parameters: unit not given here
Protocol: Measurements of trans-epidermal water loss (TEWL) were performed with the Tewameter (Courage & Khazaka, Cologne, Germany). The Tewameter is a device for measurement of water evaporation on skin surfaces based on the diffusion principle discovered by A. Fick in 1885.
as §1, §2, §3, §4

healthy human skin [4] = assay: Desquamation: dansyl chloride fluorescence extraction score on volar forearms, 7 days of treatment then SDS irritation; type: in vivo
Protocol: The stratum corneum was stained with dansyl chloride. Dansyl chloride was mixed to homogeneity at 5% (w/w) in petrolatum and applied to the volar forearms of the volunteers under semi-occlusive tape, one day before the beginning of the study. After 24 h the patches were removed and any excess material wiped off under running tape water. Fluorescence was assessed under UV illumination for intensity and homogeneity by a trained evaluator using the following scale for fluorescence extraction: • 0 : no fluorenscence extraction • 1 : slight fluorescence extraction • 2 : moderate fluorescence extraction • 3 : strong fluorescence extraction • 4 : complete fluorescence extraction. Half scores were used when needed.
as §1, §2, §3, §4

[5] = 0.05% in oil-in-water emulsion, 7 days pretreatment, after SDS (5% aqueous, 2 h occlusion, measured 1 h later)
[6] = 0.05% in oil-in-water emulsion, about 2 mg/cm^2 morning and evening, after 7 days
[7] = 0.05% in oil-in-water emulsion, day 0 (baseline before start of treatment)
[8] = 0.2% in oil-in-water emulsion, 7 days pretreatment, after SDS (5% aqueous, 2 h occlusion, measured 1 h later)
[9] = 0.2% in oil-in-water emulsion, about 2 mg/cm^2 morning and evening, after 7 days
[10] = 0.2% in oil-in-water emulsion, day 0 (baseline before start of treatment)
[11] = 0.5% in oil-in-water emulsion, 7 days pretreatment, after SDS (5% aqueous, 2 h occlusion, measured 1 h later)
[12] = 0.5% in oil-in-water emulsion, about 2 mg/cm^2 morning and evening, after 7 days
[13] = 0.5% in oil-in-water emulsion, day 0 (baseline before start of treatment)
[14] = 0.05% in oil-in-water emulsion, 7 days pretreatment, after SDS (5% aqueous, 2 h occlusion), scale 0 to 4
[15] = 0.05% in oil-in-water emulsion, morning and evening, after 7 days, scale 0 (no) to 4 (complete fluorescence extraction)
[16] = 0.05% in oil-in-water emulsion, day 0 (baseline), scale 0 (no) to 4 (complete fluorescence extraction)
[17] = 0.2% in oil-in-water emulsion, 7 days pretreatment, after SDS (5% aqueous, 2 h occlusion), scale 0 to 4
[18] = 0.2% in oil-in-water emulsion, day 0 (baseline), scale 0 (no) to 4 (complete fluorescence extraction)
[19] = 0.5% in oil-in-water emulsion, 7 days pretreatment, after SDS (5% aqueous, 2 h occlusion), scale 0 to 4
[20] = 0.5% in oil-in-water emulsion, day 0 (baseline), scale 0 (no) to 4 (complete fluorescence extraction)

| Compound | Skin roughness (healthy human skin [1]; [5]) | Skin roughness (healthy human skin [1]; [6]) | Skin roughness (healthy human skin [1]; [7]) | Skin roughness (healthy human skin [1]; [8]) | Skin roughness (healthy human skin [1]; [9]) | Skin roughness (healthy human skin [1]; [10]) | Skin roughness (healthy human skin [1]; [11]) | Skin roughness (healthy human skin [1]; [12]) | Skin roughness (healthy human skin [1]; [13]) | skin colour [2, 5] | skin colour [2, 6] | skin colour [2, 7] | skin colour [2, 8] | skin colour [2, 9] | skin colour [2, 10] | skin colour [2, 11] | skin colour [2, 12] | skin colour [2, 13] | TEWL [3, 5] | TEWL [3, 6] | also measured |
| --- | --- | --- | --- | --- | --- | --- | --- | --- | --- | --- | --- | --- | --- | --- | --- | --- | --- | --- | --- | --- | --- |
| CCCCCCCCCCCCCC[C@@H](O)[C@@H](O)[C@H](CO)NC(=O)[C@H](C)O [Cer6/OH-C3, N-[(S)-2-hydroxypropanoyl]-phytosphingosine] | 96.9 ± 8.1 | 109.1 ± 16.4 | 131.2 ± 15.5 | 92.9 ± 9.7 | 91.9 ± 9.9 | 104.7 ± 9 | 116.5 ± 14.8 | 112.9 ± 15.2 | 131.1 ± 15.2 | 13.1 ± 1.8 | 7.6 ± 0.8 | 6.7 ± 0.4 | 11.4 ± 0.6 | 8.5 ± 0.9 | 7.8 ± 0.9 | 9.5 ± 1.3 | 8.7 ± 0.7 | 8.2 ± 0.5 | 16.6 ± 5.2 | 8.2 ± 3.5 | TEWL [3, 7]: 5 ± 1.1; TEWL [3, 8]: 13.5 ± 6; TEWL [3, 9]: 7.2 ± 1.6; TEWL [3, 10]: 6.1 ± 1.5; TEWL [3, 11]: 11.6 ± 3.3; TEWL [3, 12]: 8 ± 1.9; TEWL [3, 13]: 6 ± 1.2; Desquamation (fluorescence extraction) (healthy human skin [4]; [14]): 0,8 ± 0,4; Desquamation (fluorescence extraction) (healthy human skin [4]; [15]): 0,2 ± 0,4; Desquamation (fluorescence extraction) (healthy human skin [4]; [16]): 0; Desquamation (fluorescence extraction) (healthy human skin [4]; [17]): 1 ± 0; Desquamation (fluorescence extraction) (healthy human skin [4]; 0.2% in oil-in-water emulsion, morning and evening, after 7 days, scale 0 (no) to 4 (complete fluorescence extraction)): 0,2 ± 0,4; Desquamation (fluorescence extraction) (healthy human skin [4]; [18]): 0; Desquamation (fluorescence extraction) (healthy human skin [4]; [19]): 1 ± 0; Desquamation (fluorescence extraction) (healthy human skin [4]; [20]): 0 |
| CCCCCCCCCCCCCC[C@@H](O)[C@@H](O)[C@H](CO)NC(=O)C(O)CCCCCC (stereo partly shown) [Cer6/OH-C8, N-(2-hydroxyoctanoyl)-phytosphingosine] | 121.8 ± 11.6 | 119.1 ± 8.8 | 133.6 ± 12.5 | 118.7 ± 7.6 | 118.5 ± 8.2 | 147.1 ± 15.5 | 82.2 ± 7.1 | 98 ± 6.9 | 111.2 ± 6 | 9.2 ± 0.8 | 6.2 ± 1.2 | 7 ± 1.2 | 8.4 ± 0.5 | 6.3 ± 0.7 | 6.8 ± 0.5 | 10.2 ± 0.9 | 8.3 ± 1.1 | 6.5 ± 0.6 | 14.7 ± 4.2 | 5.7 ± 1.9 | TEWL [3, 7]: 5.7 ± 1.3; TEWL [3, 8]: 10.12 ± 1.9; TEWL [3, 9]: 5.5 ± 1.6; TEWL [3, 10]: 5.4 ± 0.7; TEWL [3, 11]: 13 ± 4.4; TEWL [3, 12]: 7.9 ± 2.7; TEWL [3, 13]: 6.5 ± 2.2; Desquamation (fluorescence extraction) (healthy human skin [4]; [14]): 0.8 ± 0.4; Desquamation (fluorescence extraction) (healthy human skin [4]; [15]): 0,4 ± 0,5; Desquamation (fluorescence extraction) (healthy human skin [4]; [16]): 0; Desquamation (fluorescence extraction) (healthy human skin [4]; [17]): 0,8 ± 0,4; Desquamation (fluorescence extraction) (healthy human skin [4]; [18]): 0; Desquamation (fluorescence extraction) (healthy human skin [4]; [19]): 1 ± 0; Desquamation (fluorescence extraction) (healthy human skin [4]; 0.5% in oil-in-water emulsion, morning and evening, after 7 days, scale 0 (no) to 4 (complete fluorescence extraction)): 0,4 ± 0,5; Desquamation (fluorescence extraction) (healthy human skin [4]; [20]): 0 |

Source: patent EP0706509B1, “SHORT CHAIN 2-HYDROXYCARBOXYLIC ACID-BASED DERIVATIVES OF CERAMIDES” (DSM N.V., priority 1994, dated 1995)
